Assay results taken from patent publication US20190284168A1, “PYRAZOLE DERIVATIES AS SGC STIMULATORS” (IRONWOOD PHARMACEUTICALS, INC., priority 2014, published 2019).

Tests used:
obese mice = settings: cited from earlier work
NO-defficient rats = settings: NO-deficient rats; cited from earlier work
[1] = molecular target: T1, soluble guanylate cyclase (sGC) (Homo sapiens, UniProt Q02108+Q02153); assay: sGC-HEK-cGMP assay with LC/MS detection; type: cell-based; settings: HEK293 whole cells, LC/MS detection of cGMP, 10 μM DETA-NONOate; 50% of high control response (30 μM Compound Y); read-out: Absolute EC50 (nM)- binned (~)
T1 construct: endogenously expressing soluble guanylate cyclase (sGC); endogenous in cells; host or cells: HEK293
T1 sequence (Q02153 1-619): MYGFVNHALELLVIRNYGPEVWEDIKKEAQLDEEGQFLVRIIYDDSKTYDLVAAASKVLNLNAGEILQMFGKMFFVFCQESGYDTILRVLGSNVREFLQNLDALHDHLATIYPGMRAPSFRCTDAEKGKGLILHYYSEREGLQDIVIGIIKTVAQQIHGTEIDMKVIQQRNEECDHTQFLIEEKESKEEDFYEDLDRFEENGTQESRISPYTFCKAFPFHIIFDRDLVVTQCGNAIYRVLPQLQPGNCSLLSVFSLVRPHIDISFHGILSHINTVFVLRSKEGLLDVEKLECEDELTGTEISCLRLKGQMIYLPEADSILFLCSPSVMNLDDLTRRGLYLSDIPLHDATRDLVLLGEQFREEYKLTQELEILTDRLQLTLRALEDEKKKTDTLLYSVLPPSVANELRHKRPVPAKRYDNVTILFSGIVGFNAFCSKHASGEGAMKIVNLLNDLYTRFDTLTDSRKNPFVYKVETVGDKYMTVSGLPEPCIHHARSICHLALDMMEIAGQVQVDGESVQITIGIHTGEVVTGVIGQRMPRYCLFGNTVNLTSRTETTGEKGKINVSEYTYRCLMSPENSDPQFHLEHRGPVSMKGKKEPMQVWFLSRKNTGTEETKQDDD
T1 sequence (Q02108 1-690): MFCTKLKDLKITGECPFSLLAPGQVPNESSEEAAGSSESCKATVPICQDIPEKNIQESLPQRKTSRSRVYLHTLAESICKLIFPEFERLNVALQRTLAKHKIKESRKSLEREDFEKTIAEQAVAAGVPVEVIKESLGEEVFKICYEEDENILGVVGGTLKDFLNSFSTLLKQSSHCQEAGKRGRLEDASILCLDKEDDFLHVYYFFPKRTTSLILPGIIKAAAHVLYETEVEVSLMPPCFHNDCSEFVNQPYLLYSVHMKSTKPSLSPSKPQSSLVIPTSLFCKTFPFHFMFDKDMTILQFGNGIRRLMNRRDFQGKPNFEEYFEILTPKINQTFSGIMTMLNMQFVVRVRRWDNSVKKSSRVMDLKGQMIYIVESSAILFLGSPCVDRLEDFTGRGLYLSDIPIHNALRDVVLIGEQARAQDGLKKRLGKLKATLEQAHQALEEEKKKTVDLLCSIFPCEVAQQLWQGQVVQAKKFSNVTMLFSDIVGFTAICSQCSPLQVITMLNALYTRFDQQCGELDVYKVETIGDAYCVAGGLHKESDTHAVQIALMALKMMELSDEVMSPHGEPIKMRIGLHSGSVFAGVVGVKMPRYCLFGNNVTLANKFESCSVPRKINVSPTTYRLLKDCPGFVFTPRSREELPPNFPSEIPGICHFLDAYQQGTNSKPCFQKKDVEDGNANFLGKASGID
Procedure: Human embryonic kidney cells (HEK293), endogenously expressing soluble guanylate cyclase (sGC), were used to evaluate the activity of test compounds. Compounds stimulating the sGC enzyme should cause an increase in the intracellular concentration of cGMP. HEK 293 cells were seeded in Dulbecco's Modification of Eagle's Medium supplemented with fetal bovine serum (10% final) and penicillin (100 U/mL)/streptomycin (100 μg/mL) in a 50 μL volume at a density of 1.5×10^4 cells/well in a poly-D-lysine coated 384 well flat bottom plate. Cells were incubated overnight at 37° C. in a humidified chamber with 5% CO2. Medium was aspirated and cells were washed with 1× Hank's Buffered Saline Salt Solution (50 μL). Cells were then incubated for 15 minutes at 37° C. with 50 μL of a 0.5 mM 3-isobutyl-1-methylxanthine (IBMX) solution.
were then added to the assay mixture and the resulting mixture incubated at 37° C. for 20 minutes. After the 20 minute incubation, the assay mixture was aspirated and 10% acetic acid containing 150 ng/mL+3-cGMP (internal standard for LCMS) (50 μL) was added to the cells. The plate was incubated at 4° C. for 30 minutes in the acetic acid solution to stop the reaction and lyse the cells. The plates were then centrifuged at 1,000 g for 3 minutes at 4° C. and the supernatant transferred to a clean reaction plate for LCMS analysis.
cGMP concentrations were determined from each sample using the LCMS conditions below (Table 2) and calculated standard curve.
Data were fit using a 4-parameter fit (log(agonist) vs. response—variable slope) using GraphPad Prism Software v.5. n=2 for all compounds. […] Compounds failing to elicit a minimum response of 50% are reported as >30 μM.

Sprague-Dawley Rats = assay: Blood pressure change in Sprague-Dawley rats; type: in vivo, rat; settings: 10 mpk PO, conscious Sprague-Dawley rats
Procedure: Male rats (250-350 g body weight, supplied by Harlan Laboratories) were anesthetized with ketamine/xylazine and a heparinized saline fluid filled catheter implanted into the right femoral artery. The catheter was exteriorized between the scapula, capped, and the animal allowed to recover for at least 7 days post surgery prior to any compound testing. Prior to testing animals were maintained on normal diet, with free access to drinking water, under a 12 hour light-dark cycle.
On the day of experimentation, under inhaled isoflurane anesthesia, the catheter was uncapped and connected to a tether (Instech Labs) and pressure transducer (Harvard Apparatus). Blood pressure and heart rate were subsequently captured and analyzed with a dedicated data capture system (PowerLab, ADInstruments). Data sampling rates were set at 1 cycle per second. Once connected, each rat was allowed to recover from anesthesia and baseline blood pressure and heart rate levels were established in these conscious, freely-moving animals. Once baseline was established either vehicle (0.5% methylcellulose or 100% PEG400) or test article was administered orally (PO, 10 mg/kg) and the effects on blood pressure and heart rate monitored for up to 24 hours.
Data are reported as hourly averages and changes in blood pressure are calculated from subtracting individual baseline on an hourly basis (Table 4)

[2] = tested on: Guinea pig tracheal smooth muscle; assay: Electrical field stimulated guinea pig tracheal smooth muscle contraction; settings: guinea pig tracheal strips, sub-maximal EFS; 95% CI 0.78-0.94; read-out: IC50, inhibition of EFS-induced tracheal smooth muscle contraction
Text: It is possible to assess the bronchodilating effects of sGC stimulators by using the system described below. This system allows us to determine potency, efficacy and duration of action of several sGC stimulators, as well as to assess potential side effects such as blood pressure, or heart rate changes.
Animals: Guinea pig, Dunkin Hartley, male, Full barrier-bred and certified free of specific micro-organisms on receipt 525-609 g on the experimental day, Harlan UK Ltd. Guinea pigs are housed in a group of 4 in solid-bottomed cages with Gold Flake bedding in a controlled environment (airflow, temperature and humidity). Food (FD1, Special Diet Services) and water are provided ad libitum.
On each experimental day, a guinea pig is killed by exposure to a rising concentration of CO2 and the trachea removed. […] Tissues are washed with Kreb's buffer and stimulated using the previously determined sub-maximal voltage for 1 hour to establish a stable baseline contraction prior to assessment of compound activity.
A cumulative dose response curve (DRC) to each test substance is then performed and changes in smooth muscle contraction measured. The effect of each test substance in each experiment is expressed as a percentage inhibition of the baseline contraction, normalized to the relevant vehicle controls. […]

sickle mice = settings: oral, high doses; cited from earlier work
[3] = tested on: sickle cell disease patients with severe PHT; settings: cited from earlier work
mdx mouse = settings: cited from earlier work
[4] = tested on: adult sickle cell disease patients; settings: infusions; cited from earlier work
[5] = tested on: adult patients with sickle cell disease; settings: acute VOE, vs placebo; cited from earlier work

For `O=C(O)CCCCN(CCc1cc(F)ccc1OCc1ccc(-c2ccc(C(F)(F)F)cc2)cc1)Cc1ccc(C(=O)O)cc1` [BAY 60-2770], which overactive bladder (obese mice) is on record?
Its overactive bladder is “ameliorates overactive bladder”.

For `Nc1nc(-c2nn(Cc3ccccc3F)c3ncccc23)ncc1C1CC1` [BAY-2272], which bladder dysfunction (NO-defficient rats) is on record?
Its bladder dysfunction is “protective effects”.

With `Fc1cnc(-c2cc(-c3ccon3)n(Cc3ccccc3F)n2)nc1` [Compound 109] as the molecule, how does the EC50 [1] read?
Its EC50 is 100 to 1000 nM.

What about the “Rat Mean Arterial Pressure peak change from baseline (at 3 or 10 mpk@)” value (Sprague-Dawley Rats) of the same molecule?
The value was “B (B = −20 ≤ peak change from baseline at 3 or 10 mpk ≤ −10)”.

With `CC(C)[N+]1(C)[C@@H]2CC[C@H]1CC(OC(=O)C(CO)c1ccccc1)C2` (some centres unmarked) [Ipratropium bromide, ipratropium bromide] as the molecule, how does the IC50 [2] read?
Its IC50 is 0.86 nM.

Which “Gardos channel activity, dense cell formation and hemolysis” value (sickle mice) does the source give for `N=C(N)NCCC[C@H](N)C(=O)O` [L-arginine, arginine] here?
The value was “decrease Gardos channel activity, dense cell formation and hemolysis”.

With `CCCc1nn(C)c2c(=O)[nH]c(-c3cc(S(=O)(=O)N4CCN(C)CC4)ccc3OCC)nc12` [sildenafil, Sildenafil] as the molecule, how does the “serious side effects (VOE, headache, visual disturbance)” value ([3]; Walk-PHaSST multicenter trial, stopped prematurely) read?
Its value is “higher frequency of serious side effects”.

And the “PAP and exercise capacity” value ([3]; sickle cell disease patients with severe PHT)?
Its value is “improvements in PAP and exercise capacity”.

And the “muscle ischemia, injury and fatigue after a brief bout of exercise” value (mdx mouse)?
The value was “alleviate muscle ischemia, as well as injury and fatigue”.

Which forearm blood flow [4] does the source give for `O=NO` [sodium nitrite] here?
Its forearm blood flow is “enhanced forearm blood flow”.

For nitric oxide [inhaled NO], which pain scores [5] is on record?
The pain scores was “significantly reduced pain scores”.
